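A five-concentration, 48-hour dose response in 96-well plates underlies each endpoint, interpolated linearly between surrounding concentrations. GI50 marks 50% less growth.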 Active and inactive are the calls of the source. Rule as the data show it: active = GI50 up to about 1.1 µM and inactive = higher.
Tests used:
Assay in all cases: NCI tumour cell line growth inhibition, 48 h
[1] = system: NCI-H460
[2] = system: OVCAR-3
[3] = system: SK-MEL-5
[4] = system: OVCAR-5
[5] = system: NCI-H23
[6] = system: SF-295
[7] = system: CAKI-1
[8] = system: UACC-62
[9] = system: SW-620
[10] = system: OVCAR-4
[11] = system: K562
[12] = system: SF-268
[13] = system: M14
[14] = system: HOP-62
[15] = system: OVCAR-8
[16] = system: RPMI-8226
[17] = system: HOP-92

`COc1ccc(OC)c2c(C(=O)O)c(C(C)c3ccccc3)ccc12` (centres undefined) was tested, and the GI50 [1] was > 100 µM (inactive), the GI50 [2] was > 100 µM (inactive) and the GI50 [3] was > 100 µM (inactive). For the same molecule, the GI50 [4] was > 100 µM (inactive), the GI50 [5] was > 100 µM (inactive) and the GI50 [6] was > 100 µM (inactive). For the same molecule, the GI50 [7] was > 100 µM (inactive), the GI50 [8] was > 100 µM (inactive) and the GI50 [9] was > 100 µM (inactive). The GI50 [10] was > 100 µM (inactive), the GI50 [11] was > 100 µM (inactive) and the GI50 [12] was > 100 µM (inactive). The GI50 [13] was > 100 µM (inactive), the GI50 [14] was > 100 µM (inactive) and the GI50 [15] was > 100 µM (inactive).

`CCN(CC)Cc1cc(Nc2c3ccccc3nc3c4ccccc4n(C)c23)ccc1O` was tested, and the GI50 [1] was 7.91 µM (inactive), the GI50 [3] was 2.61 µM (inactive) and the GI50 [16] was 3.67 µM (inactive). The GI50 [17] was 5.9 µM (inactive), the GI50 [4] was 10.1 µM (inactive) and the GI50 [5] was 15.1 µM (inactive). For the same molecule, the GI50 [6] was 10 µM (inactive), the GI50 [7] was 11.2 µM (inactive) and the GI50 [8] was 6.9 µM (inactive). For the same molecule, the GI50 [9] was 6.07 µM (inactive), the GI50 [10] was 14 µM (inactive) and the GI50 [11] was 2.51 µM (inactive). For the same molecule, the GI50 [12] was 16.6 µM (inactive), the GI50 [13] was 1.92 µM (inactive) and the GI50 [14] was 12 µM (inactive). For the same molecule, the GI50 [15] was 9.25 µM (inactive).

In the case of `O=c1[nH]ccc(CNC23CC4CC(CC(C4)C2)C3)c1O`, the GI50 [1] is reported as 79.3 µM (inactive), the GI50 [2] is reported as > 100 µM (inactive) and the GI50 [3] is reported as > 100 µM (inactive). The GI50 [16] was > 100 µM (inactive), the GI50 [4] was > 100 µM (inactive) and the GI50 [5] was > 100 µM (inactive). The GI50 [6] was 78.2 µM (inactive), the GI50 [7] was 59.7 µM (inactive) and the GI50 [8] was > 100 µM (inactive). The GI50 [9] was > 100 µM (inactive), the GI50 [10] was > 100 µM (inactive) and the GI50 [11] was 88.3 µM (inactive). For the same molecule, the GI50 [13] was > 100 µM (inactive), the GI50 [14] was > 100 µM (inactive) and the GI50 [15] was > 100 µM (inactive).

With `CC(C)(Oc1ccc(C(=O)c2ccc(Cl)cc2)cc1Cl)C(=O)N1CCN(c2ccccc2)CC1` the GI50 [1] was > 100 µM (inactive), the GI50 [2] was > 100 µM (inactive) and the GI50 [3] was 72.8 µM (inactive). The GI50 [16] was > 100 µM (inactive), the GI50 [17] was > 100 µM (inactive) and the GI50 [4] was > 100 µM (inactive). For the same molecule, the GI50 [5] was 37.2 µM (inactive), the GI50 [6] was > 100 µM (inactive) and the GI50 [8] was > 100 µM (inactive). For the same molecule, the GI50 [9] was > 100 µM (inactive), the GI50 [11] was 34.4 µM (inactive) and the GI50 [12] was > 100 µM (inactive). For the same molecule, the GI50 [13] was > 100 µM (inactive), the GI50 [14] was > 100 µM (inactive) and the GI50 [15] was > 100 µM (inactive).

For `COc1cc2c(c(OC)c1OC)-c1ccc(SC)c(=O)cc1[C@@H](NC(=O)c1ccc(Cl)cc1)CC2`, the GI50 [1] was < 0.01 µM (active), the GI50 [2] was < 0.01 µM (active) and the GI50 [3] was < 0.01 µM (active). For the same molecule, the GI50 [16] was < 0.01 µM (active), the GI50 [5] was < 0.01 µM (active) and the GI50 [6] was < 0.01 µM (active). The GI50 [8] was < 0.01 µM (active), the GI50 [9] was < 0.01 µM (active) and the GI50 [10] was < 0.01 µM (active). The GI50 [11] was < 0.01 µM (active), the GI50 [12] was < 0.01 µM (active) and the GI50 [13] was < 0.01 µM (active). The GI50 [14] was < 0.01 µM (active) and the GI50 [15] was < 0.01 µM (active).

For `CC(C)(C)C1=CC(=NNC(=S)NCc2ccccc2)C=C(C(C)(C)C)C1=O`, the GI50 [1] was 47.6 µM (inactive), the GI50 [2] was > 100 µM (inactive) and the GI50 [3] was 37.6 µM (inactive). The GI50 [16] was > 100 µM (inactive), the GI50 [5] was 64 µM (inactive) and the GI50 [6] was 86.3 µM (inactive). For the same molecule, the GI50 [8] was > 100 µM (inactive), the GI50 [9] was > 100 µM (inactive) and the GI50 [10] was 90.2 µM (inactive). For the same molecule, the GI50 [11] was 83 µM (inactive), the GI50 [12] was 87.3 µM (inactive) and the GI50 [13] was > 100 µM (inactive). The GI50 [14] was > 100 µM (inactive) and the GI50 [15] was > 100 µM (inactive).

In the case of `Cc1ccc(C(=O)NC2CCCCC2)cc1/N=N/N(C)C`, the GI50 [1] is reported as > 100 µM (inactive), the GI50 [2] is reported as > 100 µM (inactive) and the GI50 [3] is reported as > 100 µM (inactive). For the same molecule, the GI50 [17] was > 100 µM (inactive), the GI50 [5] was > 100 µM (inactive) and the GI50 [6] was > 100 µM (inactive). The GI50 [7] was > 100 µM (inactive), the GI50 [8] was > 100 µM (inactive) and the GI50 [9] was > 100 µM (inactive). The GI50 [10] was > 100 µM (inactive), the GI50 [12] was 44.9 µM (inactive) and the GI50 [13] was > 100 µM (inactive). The GI50 [14] was > 100 µM (inactive) and the GI50 [15] was > 100 µM (inactive).

`COC(=O)/N=C(\NC(=O)OC)Nc1ccc(Oc2ccccc2)cc1NC=O` was tested, and the GI50 [2] was 0.327 µM (active), the GI50 [3] was 0.341 µM (active) and the GI50 [16] was 2.55 µM (inactive). The GI50 [17] was 24.3 µM (inactive), the GI50 [4] was > 100 µM (inactive) and the GI50 [5] was 0.824 µM (active). For the same molecule, the GI50 [6] was 0.439 µM (active), the GI50 [8] was 0.573 µM (active) and the GI50 [9] was 0.388 µM (active). The GI50 [10] was 0.891 µM (active), the GI50 [11] was 0.265 µM (active) and the GI50 [12] was 0.673 µM (active). For the same molecule, the GI50 [13] was 0.401 µM (active), the GI50 [14] was 0.912 µM (active) and the GI50 [15] was 0.593 µM (active).

For `C=C1C2CCCC1C1(S(C)(=O)=O)CCCCC21O` (centres undefined), the GI50 [1] was > 100 µM (inactive), the GI50 [2] was > 100 µM (inactive) and the GI50 [3] was > 100 µM (inactive). For the same molecule, the GI50 [16] was > 100 µM (inactive), the GI50 [17] was < 0.01 µM (active) and the GI50 [4] was > 100 µM (inactive). The GI50 [5] was > 100 µM (inactive), the GI50 [6] was > 100 µM (inactive) and the GI50 [7] was > 100 µM (inactive). For the same molecule, the GI50 [8] was > 100 µM (inactive), the GI50 [9] was > 100 µM (inactive) and the GI50 [10] was > 100 µM (inactive). For the same molecule, the GI50 [11] was > 100 µM (inactive), the GI50 [13] was > 100 µM (inactive) and the GI50 [15] was > 100 µM (inactive).

With `CCN(CC)CCNc1ccc2nc(C)n3c4ccc(O)cc4c(=O)c1c23` the GI50 [1] was 0.215 µM (active), the GI50 [2] was 1.97 µM (inactive) and the GI50 [3] was 2.01 µM (inactive). For the same molecule, the GI50 [16] was 2.16 µM (inactive), the GI50 [4] was 0.479 µM (active) and the GI50 [6] was 0.462 µM (active). The GI50 [7] was 1.24 µM (inactive), the GI50 [9] was 0.596 µM (active) and the GI50 [10] was 0.525 µM (active). The GI50 [11] was 1.48 µM (inactive), the GI50 [12] was 0.481 µM (active) and the GI50 [13] was 2.99 µM (inactive). For the same molecule, the GI50 [14] was 0.975 µM (active) and the GI50 [15] was 0.371 µM (active).

With `CCC1OCCN1C(C)C` (centres undefined) the GI50 [1] was 63.1 µM (inactive), the GI50 [3] was 70.8 µM (inactive) and the GI50 [16] was 60 µM (inactive). For the same molecule, the GI50 [4] was > 100 µM (inactive), the GI50 [5] was 32.9 µM (inactive) and the GI50 [6] was > 100 µM (inactive). For the same molecule, the GI50 [8] was 59 µM (inactive), the GI50 [9] was > 100 µM (inactive) and the GI50 [11] was > 100 µM (inactive). For the same molecule, the GI50 [12] was > 100 µM (inactive) and the GI50 [15] was > 100 µM (inactive).

`CC1CC2C3CCC4=CC(=O)C=CC4(C)C3(F)C(O)CC2(C)C1(O)C(=O)CO.Cc1cc(NS(=O)(=O)c2ccc(/N=N\c3cc(/N=N/c4ccc(S(=O)(=O)Nc5cc(C)nc(C)n5)cc4)c(OC(=O)C(Cl)Cl)c4cccc(NC(=O)C(Cl)Cl)c34)cc2)nc(C)n1` was tested, and the GI50 [1] was 25.9 µM (inactive), the GI50 [2] was 18.6 µM (inactive) and the GI50 [3] was 2.97 µM (inactive). For the same molecule, the GI50 [17] was 32.5 µM (inactive), the GI50 [4] was 16.6 µM (inactive) and the GI50 [5] was 30.3 µM (inactive). The GI50 [6] was 28.2 µM (inactive), the GI50 [7] was 31.2 µM (inactive) and the GI50 [8] was 23.9 µM (inactive). For the same molecule, the GI50 [9] was 20.8 µM (inactive), the GI50 [10] was 19.8 µM (inactive) and the GI50 [11] was 30.6 µM (inactive). For the same molecule, the GI50 [12] was 26.4 µM (inactive), the GI50 [13] was 28.9 µM (inactive) and the GI50 [14] was 35.2 µM (inactive). For the same molecule, the GI50 [15] was 22.9 µM (inactive).

For `CCCCCCCCCCCCCCCCCCOCC1(COP(=O)([O-])OCC[N+](C)(C)C)CCCO1` (centres undefined), the GI50 [1] was 1.57 µM (inactive), the GI50 [2] was 4.22 µM (inactive) and the GI50 [3] was 14.4 µM (inactive). The GI50 [16] was 2.79 µM (inactive), the GI50 [17] was 3.27 µM (inactive) and the GI50 [4] was 12.4 µM (inactive). The GI50 [5] was 16.8 µM (inactive), the GI50 [6] was 2.34 µM (inactive) and the GI50 [8] was 8.75 µM (inactive). The GI50 [10] was 2.83 µM (inactive), the GI50 [11] was 16.4 µM (inactive) and the GI50 [12] was 5.87 µM (inactive). The GI50 [13] was 3.14 µM (inactive), the GI50 [14] was 2.99 µM (inactive) and the GI50 [15] was 11.2 µM (inactive).
